Laboratory results as given in US20210283107A1, “Methods to Expand the Spectrum of Gram-Positive Antibiotics” (NORTH CAROLINA STATE UNIVERSITY, priority 2016, published 2021).
≈ marks a conversion by molar mass, not a printed value.

Key:
AB5075 [1] = assay: Checkerboard assay for FIC determination with colistin; assay type: cell-based, Acinetobacter baumannii; details: chequerboard, ΣFIC≥2 considered antagonistic
Description: Against AB5075, we determined that the ΣFIC with compound 1 to be 17 and the ΣFIC with compound 10 to be 33. These ΣFIC values indicate that both compounds are highly antagonistic with colistin as a ΣFIC≥2 is considered antagonistic.
Day Cultures (6 h) of A. baumannii 5075 were subcultured to 5×10^5 CFU/mL in cation adjusted Mueller-Hinton broth (CAMHB). 100 μL of the inoculated media was distributed into all wells of a 96-well plate except well 1A. Inoculated CAMHB (200 μL) containing compound (twice the highest concentration tested) was added to well 1A, and 100 μL of the same sample was added to wells 2A-12A. The contents in column A were mixed five times before 100 μL was transferred to column B. The contents of column B were mixed 5 times before transferring to column C. This process was repeated with the remainder of the columns up to column G. Column H was not mixed to allow determination of the antibiotic MIC alone. […] Row 12 was not mixed so that the MIC of the compound alone could be determined. The MICs of both compound and antibiotic alone were recorded, as well as the wells containing the combination. The ΣFICs were calculated as follows: ΣFIC=FIC (Compound)+FIC (antibiotic), where FIC (compound) is the MIC of the compound in the combination/MIC of the compound alone and the FIC (antibiotic) is the MIC of the antibiotic in combination/the MIC of the antibiotic alone. […]

[2] = system: A. baumannii strain 5075 (AB5075); assay: Broth microdilution MIC determination of compound alone; assay type: cell-based; details: Acinetobacter baumannii; compound alone; AB5075; read-out: MIC
Description: Our initial screening began by testing a diverse selection of 2-AI compounds from our internal library for their minimal inhibitory concentrations (MIC) against A. baumannii isolate 5075.
(§1) Day Cultures (6 h) were subcultured to 5×10^5 CFU/mL in cation adjusted Mueller-Hinton broth (CAMHB). Aliquots (1 mL) were placed in culture tubes, and compound was added from 100 mM stock solutions, such that the compound concentration equaled the highest concentration tested (200 μM or 64 μg/mL). Samples were then aliquoted (200 μL) into the first row of wells of a 96-well plate, with all remaining wells being filled with 100 μL of initial bacterial subculture. The wells in row one were mixed five times before 100 μL was transferred to the following row (row two). Row two was then mixed five times, and 100 μL was transferred to row three. This processed was repeated until the final row had been mixed. This process provided a serial dilution of the compound. Plates were covered with Glad Press n'Seal and were incubated under stationary conditions at 37° C. for 16 hours. MIC values were recorded as the lowest concentration at which no bacterial growth was observed.

[3] = system: A. baumannii strain 5075 (AB5075); assay: Macrolide sensitization / antibiotic resensitization: antibiotic MIC in presence of compound (broth microdilution); assay type: cell-based, Acinetobacter baumannii
Description: A. baumannii 5075 was plated on LB agar, then grown in CAMHB for 6-8 h and this culture was used to inoculate fresh CAMHB (5×10^5 CFU/mL). The resulting suspension was aliquoted (5 mL) into culture tubes and compound, from 100 mM DMSO stock, was added. One aliquot was not treated (control). 1 mL of each sample was transferred to a new culture tube and antibiotic was added. Rows 2-12 of a 96-well microtiter plate were filled with 100 μL/well from the remaining 4 mL bacterial subcultures, allowing the concentration of compound to be kept uniform throughout the antibiotic dilution procedure. Samples containing antibiotic were aliquoted (200 μL) into the corresponding first row wells of the microtiter plate. Row 1 wells were mixed 6 to 8 times then 100 μL was withdrawn and transferred to row 2. Row 2 wells were mixed 6 to 8 times, followed by a 100 μL transfer from row 2 to row 3. This procedure was repeated to serially dilute the rest of the rows of the microtiter plate, with the exception of the final row, to which no antibiotic was added (to check for growth of bacteria in the presence of compound alone). The microtiter plate was then covered, placed in a covered damp plastic container and incubated under stationary conditions at 37° C. After 16-18 hrs minimum inhibitory concentration (MIC) values were recorded as the lowest concentration of antibiotic at which there was no visible growth of bacteria. Experiments were carried out in duplicate each time and repeated at least twice.
The difference in antibiotic MIC between the control (no compound) sample, and the samples containing each compound was recorded as the fold-reduction.
(§2) Day Cultures (6 h) were subcultured to 5×10^5 CFU/mL in cation adjusted Mueller-Hinton broth (CAMHB). […] One milliliter of the resulting solution was aliquoted into a separate culture tube and was dosed with antibiotic so that the resulting concentration was the highest desirable concentration to be tested. Bacteria treated with antibiotic alone were used as a control. Row one of a 96-well plate was filled with 200 μL of the antibiotic/compound solution, and the remaining rows were filled with 100 μL of the remaining 4 mL bacterial subculture. The wells in row one were mixed five times before 100 μL was transferred to the following row (row two). Row two was then mixed five times, and 100 μL was transferred to row three. This process was repeated until the second to last row had been reached. The last row is left unexposed to antibiotic in order to serve as a negative control. The antibiotic only treated bacteria was plated by aliquoting 200 μL of the treated bacteria into row one and filling the remaining rows with untreated bacteria from the original bacteria subculture. The rows were mixed in the same way as described above. Plates were covered with Glad Press n'Seal and were incubated under stationary conditions at 37° C. for 16 hours. MIC values were recorded as the lowest concentration at which no bacterial growth was observed. Fold reductions were determined by comparison of the compound treated wells with the antibiotic only treated control wells.

[4] = system: A. baumannii mutant AB1310; assay: MIC against Tn-seq transposon mutant AB1310; assay type: cell-based; details: Acinetobacter baumannii
Description: (§3) During individual MIC screening, two mutants, AB522 and AB1310, were identified due to their increased sensitivity to the three macrolide antibiotics and vancomycin when compared to AB 5075 (Table 17).
as §1

[5] = system: A. baumannii mutant AB522; assay: MIC against Tn-seq transposon mutant AB522; assay type: cell-based; details: Acinetobacter baumannii
Description: as §3, §1

AB5075 [6] = assay: G. mellonella model infected with AB5075, survival; assay type: in vivo, Galleria mellonella
Description: Galleria mellonella larvae (Speedy Worm, Alexandria, Minn.) were used within ten days of shipment from the vendor. After reception of worms, larvae were kept in the dark at room temperature for at least 24 h before infection. Larvae weighing between 200 to 300 mg were used in the survival assay. Using a 10 μL glass syringe (Hamilton, Reno, Nev.) fitted with a 30 G needle (Exel International, St. Petersburg, Fl), 5 μL of the desired compound and concentration were injected into the last left proleg. After 2.5 h, a second 5 μL injection containing 6×10^5 CFU of Acinetobacter baumannii 5075 was injected into the second to last left proleg. Injected worms were left at room temperature in the dark while being assessed at 24 h intervals over 6 days. […] Experiment was repeated 7 times using 10 larvae per experimental group.

A. baumannii strain 3785 = assay: Potentiation of clarithromycin and vancomycin against clinical isolate; assay type: cell-based, Acinetobacter baumannii; details: antibiotic alone
Description: (§4) As previously stated, A. baumannii 5075 was chosen for these studies due to its virulence and multidrug resistance, but to further analyze the activity of our lead compounds, 23 A. baumannii clinical isolates obtained from Walter Reed Army Institute of Research (WRAIR) were tested.
as §2

A. baumannii strain 4026 = assay: as above; assay type: cell-based, Acinetobacter baumannii; details: antibiotic alone
Description: as §4, §2

A. baumannii strain 4498 = assay: as above; assay type: cell-based, Acinetobacter baumannii; details: antibiotic alone
Description: as §4, §2

A. baumannii strain 4857 = assay: as above; assay type: cell-based, Acinetobacter baumannii; details: antibiotic alone
Description: as §4, §2

A. baumannii strain 3806 = assay: as above; assay type: cell-based, Acinetobacter baumannii; details: antibiotic alone
Description: as §4, §2

A. baumannii strain 8967 = assay: as above; assay type: cell-based, Acinetobacter baumannii; details: antibiotic alone
Description: as §4, §2

A. baumannii strain 4025 = assay: as above; assay type: cell-based, Acinetobacter baumannii; details: antibiotic alone
Description: as §4, §2

A. baumannii strain 5197 = assay: as above; assay type: cell-based, Acinetobacter baumannii; details: antibiotic alone
Description: as §4, §2

A. baumannii strain 5711 = assay: as above; assay type: cell-based, Acinetobacter baumannii; details: antibiotic alone
Description: as §4, §2

A. baumannii strain 4027 = assay: as above; assay type: cell-based, Acinetobacter baumannii; details: antibiotic alone
Description: as §4, §2

A. baumannii strain 5256 = assay: as above; assay type: cell-based, Acinetobacter baumannii; details: antibiotic alone
Description: as §4, §2

A. baumannii strain 3927 = assay: as above; assay type: cell-based, Acinetobacter baumannii; details: antibiotic alone
Description: as §4, §2

A. baumannii strain 4490 = assay: as above; assay type: cell-based, Acinetobacter baumannii; details: antibiotic alone
Description: as §4, §2

A. baumannii strain 5001 = assay: as above; assay type: cell-based, Acinetobacter baumannii; details: antibiotic alone
Description: as §4, §2

A. baumannii strain 4269 = assay: as above; assay type: cell-based, Acinetobacter baumannii; details: antibiotic alone
Description: as §4, §2

A. baumannii strain 4957 = assay: as above; assay type: cell-based, Acinetobacter baumannii; details: antibiotic alone
Description: as §4, §2

A. baumannii strain 3560 = assay: as above; assay type: cell-based, Acinetobacter baumannii; details: antibiotic alone
Description: as §4, §2

A. baumannii strain 4795 = assay: as above; assay type: cell-based, Acinetobacter baumannii; details: antibiotic alone
Description: as §4, §2

A. baumannii strain 4991 = assay: as above; assay type: cell-based, Acinetobacter baumannii; details: antibiotic alone
Description: as §4, §2

A. baumannii strain 4448 = assay: as above; assay type: cell-based, Acinetobacter baumannii; details: antibiotic alone
Description: as §4, §2

A. baumannii strain 4052 = assay: as above; assay type: cell-based, Acinetobacter baumannii; details: antibiotic alone
Description: as §4, §2

A. baumannii strain 4878 = assay: as above; assay type: cell-based, Acinetobacter baumannii; details: antibiotic alone
Description: as §4, §2

A. baumannii strain 4456 = assay: as above; assay type: cell-based, Acinetobacter baumannii; details: antibiotic alone
Description: as §4, §2

Row | SMILES | MIC [4] | MIC [5] | MIC (μg/mL) of the antibiotic (A. baumannii strain 3785) | MIC (μg/mL) of the antibiotic (A. baumannii strain 4026) | MIC (μg/mL) of the antibiotic (A. baumannii strain 4498) | MIC (μg/mL) of the antibiotic (A. baumannii strain 3806) | MIC (μg/mL) of the antibiotic (A. baumannii strain 8967) | MIC (μg/mL) of the antibiotic (A. baumannii strain 4025) | MIC (μg/mL) of the antibiotic (A. baumannii strain 5197) | MIC (μg/mL) of the antibiotic (A. baumannii strain 5711) | MIC (μg/mL) of the antibiotic (A. baumannii strain 4027) | also measured
1 | Nc1nc(-c2ccc(NC(=O)c3c(Cl)cc(Cl)cc3Cl)cc2)c[nH]1 [Compound 10] | – | – | – | – | – | – | – | – | – | – | – | ΣFIC with colistin (AB5075 [1]): 33; MIC [2]: 100 µM (≈ 38.2 µg/mL); Fold reduction (erythromycin MIC) ([3]; compound at 30 μM vs antibiotic alone, AB5075): 8 fold
2 | CC[C@H]1OC(=O)[C@H](C)[C@@H](O[C@H]2C[C@@](C)(OC)[C@@H](O)[C@H](C)O2)[C@H](C)[C@@H](O[C@@H]2O[C@H](C)C[C@H](N(C)C)[C@H]2O)[C@](C)(OC)C[C@@H](C)C(=O)[C@H](C)[C@@H](O)[C@]1(C)O [Clarithromycin, reference compound] | 2 µg/mL (≈ 2.67 µM) | 2 µg/mL (≈ 2.67 µM) | 64 µg/mL | 64 µg/mL | 64 µg/mL | 16 µg/mL | 16 µg/mL | 64 µg/mL | 64 µg/mL | 64 µg/mL | 64 µg/mL | survival after 6 days (AB5075 [6]; clarithromycin alone at 25 mg/kg): 1%; MIC (μg/mL) of the antibiotic (A. baumannii strain 4857): 64 µg/mL
3 | CO[C@H]1/C=C/O[C@@]2(C)Oc3c(C)c(O)c4c(O)c(c(/C=N/N5CCN(C)CC5)c(O)c4c3C2=O)NC(=O)/C(C)=C\C=C\[C@H](C)[C@H](O)[C@@H](C)[C@@H](O)[C@@H](C)[C@H](OC(C)=O)[C@@H]1C [rifampin, reference compound] | – | – | – | – | – | – | – | – | – | – | – | survival after 6 days (AB5075 [6]; rifampin at 30 mg/kg, one injection): 64%
4 | CN[C@H](CC(C)C)C(=O)N[C@H]1C(=O)N[C@@H](CC(N)=O)C(=O)N[C@H]2C(=O)N[C@H]3C(=O)N[C@H](C(=O)N[C@H](C(=O)O)c4cc(O)cc(O)c4-c4cc3ccc4O)[C@H](O)c3ccc(c(Cl)c3)Oc3cc2cc(c3O[C@@H]2O[C@H](CO)[C@@H](O)[C@H](O)[C@H]2O[C@H]2C[C@](C)(N)[C@H](O)[C@H](C)O2)Oc2ccc(cc2Cl)[C@H]1O [Vancomycin, reference compound] | 64 µg/mL (≈ 44.2 µM) | 64 µg/mL (≈ 44.2 µM) | 512 µg/mL | 512 µg/mL | 512 µg/mL | 256 µg/mL | 512 µg/mL | 512 µg/mL | 512 µg/mL | >512 µg/mL | 512 µg/mL | MIC ([3]; Acinetobacter baumannii, read-out: MIC (μg/mL) of the antibiotic): 256 µg/mL; MIC (μg/mL) of the antibiotic (A. baumannii strain 5256): 512 µg/mL; MIC (μg/mL) of the antibiotic (A. baumannii strain 3927): 256 µg/mL; MIC (μg/mL) of the antibiotic (A. baumannii strain 4490): 256 µg/mL; MIC (μg/mL) of the antibiotic (A. baumannii strain 5001): 512 µg/mL; MIC (μg/mL) of the antibiotic (A. baumannii strain 4269): 512 µg/mL; MIC (μg/mL) of the antibiotic (A. baumannii strain 4957): 512 µg/mL; MIC (μg/mL) of the antibiotic (A. baumannii strain 3560): 256 µg/mL; MIC (μg/mL) of the antibiotic (A. baumannii strain 4795): >512 µg/mL; MIC (μg/mL) of the antibiotic (A. baumannii strain 4991): 512 µg/mL; MIC (μg/mL) of the antibiotic (A. baumannii strain 4448): 512 µg/mL; MIC (μg/mL) of the antibiotic (A. baumannii strain 4052): >512 µg/mL; MIC (μg/mL) of the antibiotic (A. baumannii strain 4878): 512 µg/mL; MIC (μg/mL) of the antibiotic (A. baumannii strain 4456): 512 µg/mL
